Assays:
[1] = biological target: T1, Rbt4p (Candida albicans, UniProt Q5AB48); assay: in vitro [3H]-cholesterol radioligand saturation binding with purified protein; competition with unlabeled cholesterol
T1 construct: gene RBT4; codon-optimized His-tagged Rbt4p expressed in Escherichia coli

[2] = biological target: T2, Rbe1p (Candida albicans, UniProt Q59ZX3); assay: as above
T2 construct: gene RBE1; codon-optimized His-tagged Rbe1p expressed in Escherichia coli
T2 sequence (Q59ZX3 20-271): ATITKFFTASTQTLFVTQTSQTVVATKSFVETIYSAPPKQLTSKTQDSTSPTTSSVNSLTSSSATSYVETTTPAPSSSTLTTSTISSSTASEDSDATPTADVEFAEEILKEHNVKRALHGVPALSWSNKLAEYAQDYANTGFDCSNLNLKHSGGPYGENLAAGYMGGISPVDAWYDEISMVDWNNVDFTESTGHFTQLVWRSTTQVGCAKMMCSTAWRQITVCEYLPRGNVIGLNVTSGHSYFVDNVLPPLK

T1 sequence (Q5AB48 20-358): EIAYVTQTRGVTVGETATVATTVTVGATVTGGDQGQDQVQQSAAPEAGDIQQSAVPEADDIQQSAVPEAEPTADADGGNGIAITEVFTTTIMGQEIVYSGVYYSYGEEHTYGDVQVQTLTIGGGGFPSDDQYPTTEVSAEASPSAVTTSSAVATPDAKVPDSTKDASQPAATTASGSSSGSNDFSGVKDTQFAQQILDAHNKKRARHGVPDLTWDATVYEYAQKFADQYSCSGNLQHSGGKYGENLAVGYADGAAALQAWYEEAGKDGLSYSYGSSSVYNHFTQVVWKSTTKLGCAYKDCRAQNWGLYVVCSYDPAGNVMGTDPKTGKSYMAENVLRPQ

CC(C)CCC[C@@H](C)[C@H]1CC[C@H]2[C@@H]3CC=C4C[C@@H](O)CC[C@]4(C)[C@H]3CC[C@]12C [cholesterol]
Kd [1]: ~3.3 µM | Kd [2]: ~5.78 µM

Source: publication PMC6078311, “Localization and functional characterization of the pathogenesis-related proteins Rbe1p and Rbt4p in Candida albicans” (PLoS ONE, 2018)
